Results as given in paper PMC6286390, “Discovering de novo peptide substrates for enzymes using machine learning” (Nature Communications, 2018).
“Also recorded” adds a separate entry of the source.

Key:
[1] = test system: B. subtilis Sfp; assay: SPOT cellulose membrane peptide labeling with TAMRA-CoA by Sfp; assay type: biochemical, Bacillus subtilis; details: 10 µM PPTase, 40 µM TAMRA-CoA, 0.01% Triton X, 15 µM BSA, 50 mM Tris-HCl pH 8.0, 10 mM MgCl2, 16 h, 37 °C, fluorescence ex 532 nm/em 580 nm
Experimental: (§1) The peptides were synthesized on an amino-PEG-cellulose 10×15 cm^2 membrane and synthesized automatically by MultiPep RSi (INTAVIS Bioanalytical Instruments AG). After Fmoc cleavage with 20% 4-methyl piperidine (Sigma) in dimethylformamide (DMF), activated with 1 equiv. hydroxybenzotriazole and 2 equiv. N-methylpyrrolidone (NMP), and directly spotted on the membrane; after 15 min this step was repeated. The membrane was washed with DMF (3 × 3 min). Solutions of the Fmoc amino acids in NMP were spotted on the membrane (0.6 M solutions; 0.8 M solutions for C, H, N, Q, and R; triple coupling, 15 min each). The Fmoc group was removed from the spots, and the sequences of the peptides were completed using the standard SPOT synthesis protocol and followed by an N-terminal tag. […]
(§2) Synthesized membranes were deprotected with cleavage cocktail consisting of 94% trifluoroacetic acid (TFA), 2.5% water, 1% triisopropylsilane (Sigma), and 2.5% 1,2-ethanedithiol (Sigma) shaking at 2 h at room temperature. […] The membranes were rinsed liberally with TBST buffer, 0.1% TFA, and distilled deionized water before imaging on a Typhoon TRIO Variable Mode Imager (GE Healthcare BioSciences) at 50-µm resolution with 532 nm green laser excitation and 580 nm emission filter and a photomultiplier tube setting of 350 V. The membrane images were analyzed by the ImageJ software[37],[38].

[2] = test system: S. coelicolor AcpS; assay: SPOT cellulose membrane peptide labeling with TAMRA-CoA by AcpS; assay type: biochemical, Streptomyces coelicolor; details: 10 µM PPTase, 40 µM TAMRA-CoA, 0.01% Triton X, 15 µM BSA, 50 mM Tris-HCl pH 8.0, 10 mM MgCl2, 16 h, 37 °C, fluorescence ex 532 nm/em 580 nm
Experimental: as §1, §2

Sequence: AVKMESLEYLDTM [4F01, Sfp-type peptide hit identified by POOL, round 4]
- labeling of membrane-bound peptide by Sfp (substrate / hit) [1]: Sfp-type peptide hits; also recorded: specific to Sfp

Sequence: IHDGADSVVWLWSNC
- labeling of membrane-bound peptide by Sfp (substrate / hit) [1]: neither a substrate for Sfp nor AcpS
- labeling of membrane-bound peptide by AcpS (substrate / hit) [2]: neither a substrate for Sfp nor AcpS

Sequence: WPEEGIESFMSVPPP [4T25, AcpS-type peptide hit identified by POOL, round 4]
- labeling of membrane-bound peptide by AcpS (substrate / hit) [2]: AcpS-type peptide hits; also recorded: specific to AcpS
